These results are taken from patent US9822074B2, “Dihydropyridinone MGAT2 inhibitors” (BRISTOL-MYERS SQUIBB COMPANY, priority 2013, dated 2017).

pIC50: −log10 of the molar value.

In this assay the target is human MGAT2 (Homo sapiens (Human), UniProt Q3SYC2). As to the kind of experiment: MGAT LCMS Assay (MGAT2 in vitro enzyme assay). Particulars: Human MGAT-2 membranes expressed in Sf9 cells; 100 μM 2-oleoylglycerol, 15 μM oleoyl-Coenzyme A; read-out: h-MGAT LCMS IC50. In kind it is biochemical. The procedure:
The MGAT enzyme reactions were performed in Corning FALCON® 96-well Polypropylene plates, in a total volume of 60 μL of 50 mM Potassium Phosphate buffer pH 7.4, containing a final concentration of 100 μM 2-oleoylglycerol, 15 μM oleoyl-Coenzyme A and 0.0013 μg/μL Human or Mouse MGAT-2 or 0.0026 μg/μL Rat recombinant MGAT-2 membranes expressed in Sf9 cells. Assay plates were run through a fully automated robotics system and shaken for 5 seconds every minute for a total 10 minutes. The reactions were then quenched with 120 μL of ice cold methanol containing 1 μg/mL 1,2-distearoyl-rac-glycerol as the internal standard. Plates were shaken for 2 minutes and spun down to remove protein precipitation. After the spin, samples were transferred to LC/MS compatible PCR plates. For LC/MS analysis, a ThermoFisher Surveyor pump, utilizing a Waters Symmetry C8, 50×2.1 mm column, was used for the chromatography of enzyme products. The buffer system consists of 0.1% formic acid in water with a mobile phase consisting 0.1% formic acid in methanol. The shallow gradient is 90-100% mobile phase in 0.2 min with a total run time of 2.3 min. The first 0.5 minutes of each injection was diverted to waste to eliminate the presence of Phosphate buffer in the enzymatic reaction. The column was run at 0.6 mL/min and a temperature of 65° C. […]

Chain of human MGAT2 (Q3SYC2 whole entry): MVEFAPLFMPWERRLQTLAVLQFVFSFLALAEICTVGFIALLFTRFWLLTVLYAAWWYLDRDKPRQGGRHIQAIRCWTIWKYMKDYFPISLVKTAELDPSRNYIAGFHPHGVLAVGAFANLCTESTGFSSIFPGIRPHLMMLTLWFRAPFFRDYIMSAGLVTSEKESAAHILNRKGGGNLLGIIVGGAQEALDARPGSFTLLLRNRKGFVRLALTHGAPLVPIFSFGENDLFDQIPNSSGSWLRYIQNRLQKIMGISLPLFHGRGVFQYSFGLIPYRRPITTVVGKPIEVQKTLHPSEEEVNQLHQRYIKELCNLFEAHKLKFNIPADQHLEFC

For the molecule `O=C1N[C@@](c2ccc(CCCCC(F)(F)F)cc2F)(C(F)(F)F)CC(c2ccn(C3CCC3)n2)=C1C(=O)NS(=O)(=O)C1CC1` [Example 50, (S)-4-(1-cyclobutyl-1H-pyrazol-3-yl)-N-(cyclopropylsulfonyl)-6-(2-fluoro-4-(5,5,5-trifluoropentyl)phenyl)-2-oxo-6-(trifluoromethyl)-1,2,5,6-tetrahydropyridine-3-carboxamide], the pIC50 was 7.80. As for `CC(C)n1ccc(C2=C(C(=O)NS(=O)(=O)C3CC3)C(=O)N[C@@](c3ccc(CCCCC(F)(F)F)cc3F)(C(F)(F)F)C2)n1` [Example 49, (S)-N-(cyclopropylsulfonyl)-6-(2-fluoro-4-(5,5,5-trifluoropentyl)phenyl)-4-(1-isopropyl-1H-pyrazol-3-yl)-2-oxo-6-(trifluoromethyl)-1,2,5,6-tetrahydropyridine-3-carboxamide], the pIC50 was 7.46.

By pIC50 is commonly meant the IC50 on a negative log10 scale, so that one unit is a factor of ten.
